Measurements from patent US9889144B2, “Abiraterone acetate formulation and methods of use” (iCeutica Inc., priority 2013, dated 2018).

What was measured:
[1] = Abiraterone acetate stability with and without milling, total impurities by HPLC; format: physicochemical; settings: 80° C., 4 hrs
Description: The impurity growth in the DPI and tablets containing fine particle abiraterone acetate is due to oxidative degradation of abiraterone acetate. […] The faster degradation in tablets containing fine particle abiraterone acetate could arise from a number of sources, including, but not limited to: greater surface area of the API, higher proportion of excipient relative to the API, and differences in excipients.

[2] = cited from earlier work

In the case of `CC(=O)O[C@H]1CC[C@@]2(C)C(=CC[C@@H]3[C@@H]2CC[C@]2(C)C(c4cccnc4)=CC[C@@H]32)C1` [Abiraterone Acetate (API), 17-(3-Pyridyl) androsta-5, acetate], the “Total impurities by HPLC” value ([1]; Milling none) is listed as 0.23 % AUC, the “Total impurities by HPLC” value ([1]; SPEX shaker mill) is listed as 0.17 % AUC and the water solubility [2] is listed as “poorly water soluble”.
